Source: the NIST ThermoML archive (doi:10.1021/je100734t)

Assay: xn = mol fraction of the nth substance listed
Conditions: 101 kPa, Liquid; for speed of sound: Pulse-echo method

CCCCCCCCCCO [decan-1-ol] + Cc1ccc(C)cc1
Conditions	mass density, 293.15 K [kg/m3]	mass density, 303.15 K [kg/m3]	mass density, 313.15 K [kg/m3]	speed of sound, 293.15 K [m/s]	speed of sound, 303.15 K [m/s]	speed of sound, 313.15 K [m/s]
x2 = 0	829.98	823.1	816.27	1396	1362	1329
x2 = 0.0806	831.76	824.74	817.76	1391	1356	1322
x2 = 0.1731	833.82	826.66	819.54	1385	1349	1314
x2 = 0.2506	835.6	828.33	821.08	1378	1342	1307
x2 = 0.3197	837.25	829.88	822.5	1373	1336	1300
x2 = 0.3693	838.49	831.04	823.57	1368	1331	1295
x2 = 0.4336	840.17	832.6	825.02	1362	1325	1289
x2 = 0.4929	841.79	834.12	826.43	1357	1320	1283
x2 = 0.5771	844.26	836.42	828.58	1350	1312	1275
x2 = 0.662	846.98	838.96	830.98	1344	1305	1267
x2 = 0.7265	849.2	841.06	832.94	1340	1300	1262
x2 = 0.7763	851.04	842.8	834.58	1337	1297	1258
x2 = 0.8293	853.13	844.77	836.44	1335	1294	1255
x2 = 0.8891	855.65	847.2	838.71	1333	1292	1252
x2 = 0.9369	857.84	849.27	840.68	1332	1290	1250

CCCCCCCCCO [nonan-1-ol] + Cc1ccc(C)cc1
Conditions	mass density, 293.15 K [kg/m3]	mass density, 303.15 K [kg/m3]	mass density, 313.15 K [kg/m3]	speed of sound, 293.15 K [m/s]	speed of sound, 303.15 K [m/s]	speed of sound, 313.15 K [m/s]
x2 = 0	827.7	820.82	813.88	1381	1347	1314
x2 = 0.0611	829.31	822.32	815.27	1378	1343	1310
x2 = 0.1108	830.62	823.55	816.41	1375	1340	1306
x2 = 0.1652	832.08	824.91	817.67	1372	1336	1301
x2 = 0.226	833.72	826.44	819.1	1368	1331	1296
x2 = 0.2932	835.56	828.16	820.7	1363	1326	1290
x2 = 0.3651	837.59	830.07	822.47	1357	1320	1284
x2 = 0.4248	839.34	831.7	824	1353	1315	1278
x2 = 0.5023	841.69	833.91	826.07	1347	1308	1272
x2 = 0.558	843.46	835.58	827.63	1343	1304	1267
x2 = 0.6359	846.06	838.04	829.95	1338	1299	1261
x2 = 0.7123	848.77	840.61	832.39	1334	1294	1256
x2 = 0.7744	851.12	842.84	834.5	1332	1291	1252
x2 = 0.8514	854.23	845.81	837.33	1330	1289	1249
x2 = 0.9286	857.59	849.02	840.41	1329	1288	1248
